# Measured values as given in patent publication US12303508B2, “Combinatory treatment strategies of cancer based on RNA polymerase I inhibition” (THE JOHNS HOPKINS UNIVERSITY, priority 2016, dated 2025).
# Experiments:
# [1] = test system: MR49F enzalutamide-resistant prostate cancer cells; test: Cell viability (CellTiter-Blue) with Chou-Talalay combination index, MR49F; format: cell-based; settings: in combination with BMH-21, constant concentrations, 48 h, CI<1 synergism
# Protocol: (§1) Cell viability was measured using Cell TiterBlue, and Chou-Talalay Combination Index analysis was performed. CI<1 denotes synergism. Effect denotes the combinatory drug activity where 1 represents 100% kill.
# (§2) Cells were maintained at 37° C. in a humidified atmosphere containing 5% CO2. […] Effect denotes the combinatory drug activity where 1 represents 100% kill.
# [2] = test system: LNCaP prostate cancer cells; test: Cell viability (CellTiter-Blue) with Chou-Talalay combination index, LNCaP; format: cell-based; settings: in combination with BMH-21, LNCaP cells, 48 h
# Protocol: Cell viability was measured using Cell TiterBlue, and the mean of triplicate samples is shown. (B) Chou-Talalay combination index (CI) analysis was used to determine the drug interactions (blue curve). CI<1 denotes synergism. Red bar, C=1 additive effect. Fraction dead cells denotes the combinatory drug activity where 1 represents 100% kill.
# (§3) Cells and Viability Assay. A375 melanoma and LNCaP prostate cancer cells were from American Type Culture Collection. HCT116 p53+/+ and −/− cells were from Dr. F. Bunz. MR49F cells were from Dr. M. Gleave. Cells were maintained at 37° C. in a humidified atmosphere containing 5% CO2. Cells were plated in 96-well plates at a density of 3,000 cells/well in triplicate and incubated for 48 h with the compounds. Viability was determined using CellTiter-Blue Cell Viability Assay (Promega) according to manufacturer's instructions. Chou-Talaley algorithm (Compusyn) was used to define the combination index (CI) where CI<1 denotes synergism, CI>1 denotes antagonism and CI=1 is additive. Effect denotes the combinatory drug activity where 1 represents 100% kill.
# LNCaP cells = test: Cleaved caspase-3 and DNA staining, LNCaP; format: cell-based; settings: for massive apoptotic response, single treatment: either treatment alone
# Description: (§4) The inset bars represent sub-G1 cells. (B) The percentage of sub-G1 cells from A is plotted over time. (C) Staining of the cells for the apoptosis marker caspase-3. Immunofluorescence and Epifluorescence Microscopy. Cells grown on coverslips were fixed in 3.5% paraformaldehyde, permeabilized with 0.5% NP-40 and blocked with 3% BSA. Cells were stained for LC3-II and cleaved caspase-3 (Cell Signaling). Alexa 488-conjugated secondary antibodies were from Invitrogen. DNA was counterstained with DAPI (Invitrogen). Images were captured using Axioplan2 fluorescence microscope (Zeiss) equipped with AxioCam HRc CCD-camera and AxioVision 4.5 software using EC Plan-Neofluar 20× or 40× objectives (Zeiss).
# MR49F cells = test: Cleaved caspase-3 and DNA staining, MR49F; format: cell-based; settings: for massive apoptotic response, single treatment: either treatment alone
# Description: as §4
# LC3-II in MR49F cells = test: LC3-II western blotting and immunofluorescence staining; format: cell-based; settings: 24 h
# Protocol: as §1
# Immunofluorescence and Epifluorescence Microscopy. Cells grown on coverslips were fixed in 3.5% paraformaldehyde, permeabilized with 0.5% NP-40 and blocked with 3% BSA. Cells were stained for LC3-II and cleaved caspase-3 (Cell Signaling). Alexa 488-conjugated secondary antibodies were from Invitrogen. DNA was counterstained with DAPI (Invitrogen). Images were captured using Axioplan2 fluorescence microscope (Zeiss) equipped with AxioCam HRc CCD-camera and AxioVision 4.5 software using EC Plan-Neofluar 20× or 40× objectives (Zeiss).
# Immunoblotting. Cells were lysed in 0.5% NP-40 buffer (25 mM Tris-HCl, pH 8.0, 120 mM NaCl, 0.5% NP-40, 4 mM NaF, 100 μM Na3VO4, 100 KIU/ml aprotinin, 10 μg/ml leupeptin) or RIPA lysis buffer. Proteins were separated on SDS-PAGE, blotted, probed for respective proteins and detected using ECL (Amersham). The primary antibodies used for detection were LC3-II and cleaved caspase-3 (Cell Signaling). HRP-conjugated secondary antibodies were from DAKO or Santa Cruz Biotechnology.
# [3] = test system: A375 human melanoma cells; test: Cell viability (CellTiter-Blue) with Chou-Talalay combination index, A375; format: cell-based; settings: in combination with BMH-21, constant concentrations, 48 h, CI<1 synergism, CI>1 antagonism
# Protocol: as §2
# [4] = test system: HCT116 p53+/+ colon carcinoma cells; test: Cell viability (CellTiter-Blue) with Chou-Talalay combination index, HCT116 p53+/+; format: cell-based; settings: in combination with BMH-21, HCT116 p53+/+ cells, 48 h
# Protocol: (§5) Data represent N=2 biological assays each conducted in triplicate. […] Chou-Talalay plots are shown. Data represents N=2 biological assays each conducted in triplicate.
# as §3
# (§6) The inventors tested these combinations in three different cell lines (A375 melanoma cells, HCT116 p53+/+ and HCT116 p53−/− colon carcinoma cells).
# [5] = test system: HCT116 p53−/− colon carcinoma cells; test: Cell viability (CellTiter-Blue) with Chou-Talalay combination index, HCT116 p53-/-; format: cell-based; settings: in combination with BMH-21, HCT116 p53−/− cells, 48 h
# Protocol: as §5, §3, §6
# RPA194 = settings: previously demonstrated; cited from earlier work
# NCI60 cancer cell lines = settings: previously demonstrated; cited from earlier work
# tumor xenograft = settings: previously demonstrated; cited from earlier work
# [6] = BMH-21 plus Avasimibe combination
Compound,drug interaction with BMH-21 (Chou-Talalay combination index on cell viability) [1],"massive apoptotic response, single treatment (LNCaP cells)","massive apoptotic response, single treatment (MR49F cells)",drug interaction with BMH-21 (Chou-Talalay combination index on cell viability) [3],drug interaction with BMH-21 (Chou-Talalay combination index on cell viability) [4],drug interaction with BMH-21 (Chou-Talalay combination index on cell viability) [5],other results
Bafilomycin,synergistic cell death,,,,,,
CC(C)c1cc(C(C)C)c(CC(=O)NS(=O)(=O)Oc2c(C(C)C)cccc2C(C)C)c(C(C)C)c1 [Avasimibe],prominent synergistic activities,not observed,not observed,,,,"drug interaction with BMH-21 (cell viability, Chou-Talalay combination index) [2]: synergistic cancer cell death; apoptosis by cleaved caspase-3 and DNA staining, combination (LNCaP cells; [6]): prominent cell apoptosis; apoptosis by cleaved caspase-3 and DNA staining, combination (MR49F cells; [6]): prominent cell apoptosis"
CCN(CC)CCCC(C)Nc1ccnc2cc(Cl)ccc12 (centres unmarked) [chloroquine],,,,,,,"number of LC3-II puncta (LC3-II in MR49F cells; co-treatment with BMH-21 (1 μM)): significant increase; expression of LC3-II (marker for autophagy inhibition) (LC3-II in MR49F cells; combination with BMH-21 (1 μM), western blotting and immunofluorescence): increased"
Cn1ncnc1[C@H]1c2n[nH]c(=O)c3cc(F)cc(c23)N[C@@H]1c1ccc(F)cc1 [BMN-673],,,,synergistically,synergistically,synergistically,
"CN(C)CCNC(=O)c1cccn2c(=O)c3cc4ccccc4cc3nc12 [BMH-21, 12H-Benzo[g]pyrido[2,1-b]quinazoline-4-carboxamide, N-[2(dimethylamino)ethyl]-12-oxo]",,not observed,not observed,,,,degradation of RPA194 (RPA194): causes proteasome-mediated degradation of RPA194; anticancer activity in NCI60 cancer cell lines (NCI60 cancer cell lines): broad and potent anticancer activity; tumor burden in mouse xenograft assays (tumor xenograft): reduced tumor burden
"O=C(c1cc(Cc2n[nH]c(=O)c3ccccc23)ccc1F)N1CCN(C(=O)C2CC2)CC1 [olaparib, 4-[[3-[4-(cyclopropanecarbonyl)piperazine-1-carbonyl]-4-fluorophenyl]methyl]-2H-phthalazin-1-one]",,,,synergistically,synergistically,synergistically,
